Results from patent US12624024B2, “EP2 antagonist compounds” (Reservoir Neuroscience, Inc., priority 2021, dated 2026).
pIC50: −log10 of the molar value.

Molecular target: T1, EP2 receptor (Homo sapiens, UniProt P43116)
T1 construct: expressed in transfected cells; host or cells: CHO-K1 cells (ATCC), transient transfection with FuGENE 6
Test: EP2 Potency Assay (cAMP TR-FRET, CHO-K1 cells transfected with EP2 receptor, PGE2 at EC80)
Format: cell-based
Conditions: CHO-K1 cells expressing EP2, prostaglandin E2 at EC80, read-out: EP2 Potency (IC50 category)
Method in brief: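 CHO-K1 cells transiently transfected with EP2 and seeded 24 h after transfection. IC50 from curve fit of percent inhibition versus concentration.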

T1 sequence (P43116 whole entry): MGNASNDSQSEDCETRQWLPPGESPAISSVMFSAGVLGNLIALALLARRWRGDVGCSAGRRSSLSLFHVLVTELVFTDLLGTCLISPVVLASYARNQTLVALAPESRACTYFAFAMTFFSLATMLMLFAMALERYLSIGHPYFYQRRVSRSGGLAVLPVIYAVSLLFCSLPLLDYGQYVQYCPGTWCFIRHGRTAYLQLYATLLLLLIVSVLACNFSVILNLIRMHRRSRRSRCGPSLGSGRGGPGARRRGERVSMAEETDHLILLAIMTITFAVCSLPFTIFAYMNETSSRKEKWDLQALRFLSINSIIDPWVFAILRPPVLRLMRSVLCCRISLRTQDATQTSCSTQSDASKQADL

Row | SMILES | pIC50
1 | Fc1ccc2c(ccn2-c2cc(Cl)c3c(c2)CN(Cc2ccnc(Cl)c2F)CCO3)c1 [Compound 190] | 5.30 to 6.00
2 | O=c1ncc(CN2CCOc3c(Cl)cc(-n4ccc5cccnc54)cc3C2)c[nH]1 [Compound 69] | < 5.30
3 | COc1ncccc1CN1CCc2c(Cl)cc(-n3ccc4cc(F)ccc43)cc2C1 [Compound 223] | < 5.30
4 | COc1ncc(CN2CCOc3c(Cl)cc(-n4ccc5cc(F)cnc54)cc3C2)cn1 [Compound 33, 9-chloro-7-(5-fluoro-1H-pyrrolo[2,3-b]pyridin-1-yl)-4-((2-methoxypyrimidin-5-yl)methyl)-2,3,4,5-tetrahydrobenzo[f][1,4]oxazepine] | 5.30 to 6.00
5 | O=c1ncc(CN2CCOc3c(Cl)cc(N4CCCc5cc(F)ccc54)cc3C2)c[nH]1 [Compound 80] | 5.30 to 6.00
6 | O=c1ncc(CN2CCOc3c(Cl)cc(-n4ccc5cc(Cl)ccc54)cc3C2)c[nH]1 [Compound 62] | 6.30 to 7.00
7 | COc1ncc(CN2CCOc3c(Cl)cc(-n4c(C)cc5cc(F)ccc54)cc3C2)cn1 [Compound 30] | 5.30 to 6.00
8 | Fc1ccc2c(ccn2-c2cc(Cl)c3c(c2)CN(Cc2ccnc(NC4COC4)n2)CCO3)c1 [Compound 162, 4-{[9-chloro-7-(5-fluoroindol-1-yl)-3,5-dihydro-2H-1,4-benzoxazepin-4-yl]methyl}-N-(oxetan-3-yl)pyrimidin-2-amine] | 5.30 to 6.00
9 | Cc1c(CN2CCOc3c(Cl)cc(-n4ccc5cc(F)ccc54)cc3C2)ccnc1Cl [Compound 191] | 5.30 to 6.00
10 | O=c1ncc(CN2CCOc3c(Cl)cc(N4CCc5cc(Cl)ccc54)cc3C2)c[nH]1 [Compound 79] | 6.30 to 7.00
11 | O=c1ncc(CN2CCOc3c(Cl)cc(-c4ncc5ccccn45)cc3C2)c[nH]1 [Compound 75] | 6.00 to 6.30
12 | COc1ncc(CN2CCOc3c(Cl)cc(N4CCc5cc(Cl)ccc54)cc3C2)cn1 [Compound 46, 9-chloro-7-(5-chloro-2,3-dihydroindol-1-yl)-4-[(2-methoxypyrimidin-5-yl)methyl]-3,5-dihydro-2H-1,4-benzoxazepine] | 6.00 to 6.30
13 | O=C(O)[C@H]1CC[C@H](CN2CCOc3c(Cl)cc(-n4ccc5cc(F)ccc54)cc3C2)CC1 [Compound 131] | 6.00 to 6.30
14 | Fc1ccc2c(ccn2-c2cc(Cl)c3c(c2)CN(Cc2nn[nH]n2)CCO3)c1 [Compound 118, 9-chloro-7-(5-fluoroindol-1-yl)-4-(2H-1,2,3,4-tetrazol-5-ylmethyl)-3,5-dihydro-2H-1,4-benzoxazepine] | < 5.30
15 | Oc1ccc(CN2CCOc3c(Cl)cc(-n4ccc5cc(F)ccc54)cc3C2)cc1 [Compound 121] | < 5.30
16 | COc1ncc(CN2CCOc3c(Cl)cc(N4CCOc5cc(F)ccc54)cc3C2)cn1 [Compound 51, 9-chloro-7-(7-fluoro-2,3-dihydro-1,4-benzoxazin-4-yl)-4-[(2-methoxypyrimidin-5-yl)methyl]-3,5-dihydro-2H-1,4-benzoxazepine] | < 5.30
17 | COc1ncc(CN2CCOc3c(Cl)cc(N4CCCc5cc(F)ccc54)cc3C2)cn1 [Compound 49, 9-chloro-7-(6-fluoro-3,4-dihydroquinolin-1(2H)-yl)-4-((2-methoxypyrimidin-5-yl)methyl)-2,3,4,5-tetrahydrobenzo[f][1,4]oxazepine] | < 5.30
18 | COc1cc(CN2CCOc3c(Cl)cc(-n4ccc5cc(F)ccc54)cc3C2)cc(OC)n1 [Compound 197] | < 5.30

Row | SMILES | pIC50
19 | Fc1ccc2c(ccn2-c2cc(Cl)c3c(c2)CN(Cc2cncnc2)CC3)c1 [Compound 222] | < 5.30
20 | Oc1ccccc1CN1CCOc2c(Cl)cc(-n3ccc4cc(F)ccc43)cc2C1 [Compound 119] | < 5.30
21 | CC(c1cc[nH]c(=O)c1)N1CCOc2c(Cl)cc(-n3ccc4cc(F)ccc43)cc2C1 (stereo not drawn) [Compound 228] | < 5.30
22 | COc1ncc(CN2CCOc3c(Cl)cc(-c4cccc5c4OCCO5)cc3C2)cn1 [Compound 57] | < 5.30
23 | Oc1cccc(CN2CCOc3c(Cl)cc(-n4ccc5cc(F)ccc54)cc3C2)c1 [Compound 120] | < 5.30
24 | COc1ncc(CN2CCOc3c(Cl)cc(-n4ccc5cncnc54)cc3C2)cn1 [Compound 42] | < 5.30
25 | CN(C)c1cc(CN2CCOc3c(Cl)cc(-n4ccc5cc(F)ccc54)cc3C2)ccn1 [Compound 181, 4-{[9-chloro-7-(5-fluoroindol-1-yl)-3,5-dihydro-2H-1,4-benzoxazepin-4-yl]methyl}-N,N-dimethylpyridin-2-amine] | 5.30 to 6.00
26 | Nc1nccc(CN2CCOc3c(Cl)cc(-n4ccc5cc(F)ccc54)cc3C2)n1 [Compound 163, 4-{[9-chloro-7-(5-fluoroindol-1-yl)-3,5-dihydro-2H-1,4-benzoxazepin-4-yl]methyl}pyrimidin-2-amine] | 5.30 to 6.00
27 | COc1ncc(CN2CCOc3c(Cl)cc(-c4cccc5c4CCCC5)cc3C2)cn1 [Compound 55] | < 5.30
28 | COc1ncc(CN2CCOc3c(Cl)cc(N4CCSc5ccccc54)cc3C2)cn1 [Compound 52] | < 5.30
29 | Nc1ccc(CN2CCOc3c(Cl)cc(-n4ccc5cc(F)ccc54)cc3C2)nn1 [Compound 167] | 5.30 to 6.00
30 | COc1ncc(CN2CCOc3c(Cl)cc(-n4cc(Cl)c5cc(Cl)ccc54)cc3C2)cn1 [Compound 29] | < 5.30
31 | Fc1ccc2c(ccn2-c2cc(Cl)c3c(c2)CN(Cc2ccno2)CCO3)c1 [Compound 94] | 5.30 to 6.00
32 | CC(C)(C)OC(=O)NCc1ncc(CN2CCOc3c(Cl)cc(-n4ccc5cc(F)ccc54)cc3C2)cn1 [Compound 140, tert-butyl N-[(5-{[9-chloro-7-(5-fluoroindol-1-yl)-3,5-dihydro-2H-1,4-benzoxazepin-4-yl]methyl}pyrimidin-2-yl)methyl]carbamate] | 5.30 to 6.00
33 | Cc1cn(-c2cc(Cl)c3c(c2)CN(Cc2cnc(=O)[nH]c2)CCO3)c2ccc(F)cc12 [Compound 67] | 6.30 to 7.00
34 | COCC1COc2c(Cl)cc(-n3ccc4cc(F)ccc43)cc2CN1Cc1cc[nH]c(=O)c1 (stereo not drawn) [Compound 239] | 5.30 to 6.00
35 | COc1ncc(CN2CCOc3c(Cl)cc(-n4ccc5cc(N(C)C)ccc54)cc3C2)cn1 [Compound 18] | < 5.30
36 | O=c1ncc(CN2CCOc3c(Cl)cc(-n4ccc5cc(F)ccc54)cc3C2)c(F)[nH]1 [Compound 155, 5-{[9-chloro-7-(5-fluoroindol-1-yl)-3,5-dihydro-2H-1,4-benzoxazepin-4-yl]methyl}-4-fluoro-3H-pyrimidin-2-one] | 5.30 to 6.00
